The test system of this experiment is LUHMES cells. As to conditions: rat liver S9 50 µg/mL in testing module, 2 h preincubation, RFP-LUHMES; toxicity increased with NADPH. The method, then: Figure 4 A strategy to incorporate metabolic competence into in vitro DNT testing methods. (A) A schematic overview of a sequential metabolism and testing approach. The “metabolisation module” uses hepatic post-mitochondrial fractions (S9) to generate metabolite mixtures in the presence or absence of cofactors (NADPH, glucose-6-phosphate, MgCl2). These metabolite mixtures are tested in the “testing module” in a concentration-dependent manner after serial pre-dilutions. Metabolite mixtures are added as a fraction of 10% to the media volume of the “testing module”. The testing module may be a cell-based neurotoxicity (NT) or developmental neurotoxicity (DNT) assay, such as the neurite outgrowth or migration assay. Here, the Mito-Met neurite outgrowth assay, as in Figure 1, was used. […] The curves represent data from three independent experiments and were fitted using a four-parameter Hill function. […] The data represent three independent experiments. The indicated concentrations are “testing module” concentrations.
To further evaluate our modular pre-activation strategy for identifying metabolite-mediated hazard, we tested a broader panel of compounds. For each compound (parent), a single concentration was used in the metabolisation module. The metabolite mixtures were generated in the absence or presence of NADPH. These metabolite mixtures were serially diluted and assessed using the MitoMet neurite outgrowth assay. As a measure of potency, EC25 values were determined, and potency ratios were calculated to compare the effects of NADPH-dependent versus NADPH-independent metabolism.
Figure 5 The effect of NADPH-dependent hepatic metabolism on the DNT of selected compounds. (A) A strategy scheme to assess the effect of metabolic enzymes on the outcome of cell-based DNT assays. Metabolite mixtures are generated using the NADPH-(in)dependent metabolic activity of S9. NADPH-independent metabolism is shown in green (light grey). NADPH-dependent metabolism is shown in red (dark grey). […] (B–F) The concentration-dependent effect of metabolite mixtures on neurite outgrowth was measured as in Figure 1, with the following modifications: red-fluorescent-protein (RFP)-expressing LUHMES cells were used. As the assay endpoint, the RFP fluorescence of neurites was used instead of calcein staining. The curves represent data from three independent experiments and were fitted using a four-parameter Hill function. From this, an EC25 was calculated. Bold numbers indicate the fold changes between EC25 values of the NADPH-(in)dependent metabolite mixtures, with the direction of the arrow reflecting the shift in sensitivity. Note that the x-axes indicate nominal concentrations of parent compounds. […] Similar images were used for neurite quantification. The right image (red frame) of the pairs was obtained with NADPH. The black arrowheads above the curves indicate the experimental conditions used to record images. The scale bar in orange corresponds to 50 µm.
The MitoMet neurite outgrowth assay was performed as previously described. In brief, all cell culture dishes and flasks were pre-coated with 50 μg/mL poly-l-ornithine (PLO) and 1 μg/mL fibronectin. Proliferating LUHMES cells were maintained in AdvDMEM/F12 containing L-glutamine (2 mM), N2 supplement (1x), and FGF (40 ng/mL). For pre-differentiation, the cells were replated at a density of 46,000 cells/cm^2 one day prior to the induction of differentiation (defined as the day of differentiation, Day −1). Differentiation was initiated by exchanging the culture medium for AdvDMEM/F12 supplemented with L-glutamine (2 mM), N2 supplement (1x), dibutyryl-cAMP (1 mM), tetracycline (1 µg/mL), and GDNF (2 ng/mL). After two days of differentiation (Day 2), the cells were replated (100,000 cells/cm^2) into 96-well plates.

Bounds are passed on as bounds.

`CN(c1c(Br)cc(Br)cc1Br)c1c([N+](=O)[O-])cc([N+](=O)[O-])cc1C(F)(F)F` [Bromethalin]: the “fold change between EC25 values of NADPH-independent and NADPH-dependent metabolite mixtures (toxification)” value was 8 x.
Regarding `CCOCn1c(-c2ccc(Cl)cc2)c(C#N)c(Br)c1C(F)(F)F` [Chlorfenapyr], the “fold change between EC25 values of NADPH-independent and NADPH-dependent metabolite mixtures (toxification)” value is more than 6 x.
